# Data: US20250255929A1, “METHODS FOR REDUCING RISKS ASSOCIATED WITH HEART FAILURE AND FACTORS ASSOCIATED THEREWITH” (Stealth BioTherapeutics Inc., priority 2012, published 2025)
# Where “and” joins values, the source holds several entries; their conditions need not be identical. Identical values can stand only once. Square brackets hold non-standard residues; d marks the D form. Ends that are not written are not given here. Dmt = Cc1cc(O)cc(C)c1C[C@H](N)C(=O)O
# How the values were obtained:
# Assay type in all cases: in vivo
# [1] = test system: C-reactive protein; assay: Plasma C-reactive protein (canine ELISA) in dog model of heart failure; design: C-reactive protein concentration, BL, Mean / C-reactive protein concentration, 12 Wk, Mean / C-reactive protein concentration, BL / C-reactive protein concentration, 6 Wk / C-reactive protein concentration, 12 Wk: unit not given here; conditions: for plasma CRP levels (FIG. 1), in words: HF dogs
# Protocol: Heart failure was induced in dogs via multiple sequential intracoronary microembolizations as described in Sabbah, et al., Am J Physiol. (1991) 260:H1379-84, herein incorporated by reference in its entirety.
# Half the dogs were subsequently treated with the mitochondrial peptide; the other half were treated with drug vehicle and served as controls. Peptide treatment was started upon induction of heart failure (HF), defined as left ventricular ejection fraction of approximately 30%. Peripheral venous blood samples were obtained from all dogs at the following time points: 1) when the dogs were normal (baseline, prior to the induction of heart failure); 2) when the dogs were induced into heart failure; 3) at 6 weeks after initiating therapy with the mitochondrial peptide or vehicle (HF+peptide, or HF+vehicle) both administered once daily as subcutaneous injections; and 4) at 12 weeks after initiating therapy with the mitochondrial peptide or vehicle. The daily dose of the peptide was 0.5 mg/kg/day administered […]. Blood samples were drawn on EDTA anticoagulant and were centrifuged at 2,500 RPM and the plasma extracted, aliquoted in 1 ml volumes into crystat tubes and stored at −70° C. until assayed. Once the follow-up was completed in all dogs, the plasma samples were thawed to room temperature and CRP was assayed using a canine specific ELISA kit (ALPCO: Cat #41-CRPCA-E01). The calorimetric method was used to assess the amount of CRP in plasma. CRP concentration was expressed as […].
# [2] = test system: reactive oxygen species (ROS); assay: Plasma ROS (luminol chemiluminescence) in dog model of heart failure; conditions: for plasma ROS levels (FIG. 2), in words: HF dogs
# Protocol: Heart failure was induced as described in Example 1. […] Half the dogs were treated with the peptide; the other half were treated with drug vehicle and served as controls. Peptide treatment was started upon induction of heart failure (HF), defined as left ventricular ejection fraction of approximately 30%. The daily dose of the peptide was 0.5 mg/kg/day administered intravenously. Blood samples were drawn on EDTA anticoagulant and were centrifuged at 2,500 RPM and the plasma extracted, aliquoted in 1 ml volumes into crystat tubes and stored at −70° C. until assayed. Once the follow-up was completed in all dogs, the plasma samples were thawed to room temperature and ROS was assayed. To assess ROS levels in the plasma, luminol (5-amino-2,3 dihydro-1,4 phtalazindione) was added to the samples. ROS levels were then assessed by chemiluminescence activity.
# [3] = test system: interleukin-6 (IL-6); assay: Plasma IL-6 (double antibody sandwich ELISA) in dog model of heart failure; conditions: for plasma IL-6 levels (FIG. 3), in words: HF dogs
# Protocol: The methods of Example 1 were used to induce heart failure, administer peptide or vehicle and collect plasma. Fourteen dogs were used in this example. Half the dogs were treated with the mitochondrial peptide; the other half were treated with drug vehicle and served as controls. Peptide treatment was started in both groups upon induction of heart failure (HF), defined as left ventricular ejection fraction of approximately 30%.
# IL-6 was quantified in EDTA-plasma using the double antibody sandwich ELISA technique. Briefly, IL-6 (Canine IL-6 Duo Set, Cat #DY1609) was purchased from R&D Systems. The assay was performed based on instructions provided by the supplier with minor modifications. The amount of EDTA-plasma incubated with the antibody plate was 150 μl and incubation time was 18 hours at 4° C. Using standard curves and software, the concentration of IL-6 was expressed as pg/ml.
# [4] = plasma, individual HF dogs, 6 weeks after initiating therapy, 0.5 mg/kg/day
# [5] = plasma, peptide group, individual dogs, baseline (before HF and treatment)
# [6] = plasma, peptide group, individual dogs, heart failure prior to initiating therapy
substance,measurement,setting,value
"D-Arg-2′,6′-Dmt-Lys-Phe-NH2 ([dR][Dmt]KF-NH2) [aromatic-cationic peptide]","plasma CRP levels (FIG. 1), in words",[1]; treatment for 12 weeks,normal or near normal levels
same,"plasma CRP levels (FIG. 1), in words",[1]; treatment for six weeks,reduced CRP levels
same,"C-reactive protein concentration, 6 Wk",[1]; [4],1.12
same,"C-reactive protein concentration, 12 Wk, Mean","[1]; plasma, mean of 3 HF dogs, 12 weeks after initiating therapy, 0.5 mg/kg/day",1.42
same,"C-reactive protein concentration, BL, Mean","[1]; plasma, peptide group mean (3 dogs), baseline, prior to induction of heart failure (before treatment)",1.82
same,"plasma ROS levels (FIG. 2), in words",[2]; treatment for 12 weeks,near normal levels
same,"plasma ROS levels (FIG. 2), in words",[2]; treatment for six weeks,reduced ROS levels
same,"Reactive oxygen species concentration, 6 Wk",[2]; [4],18.4 RLU×10^5/ml and 16.6 RLU×10^5/ml and 15.1 RLU×10^5/ml and 23.3 RLU×10^5/ml
same,"Reactive oxygen species concentration, 12 Wk","[2]; plasma, individual HF dogs, 12 weeks after initiating therapy, 0.5 mg/kg/day",12.4 RLU×10^5/ml (2×) and 8.3 RLU×10^5/ml and 9.0 RLU×10^5/ml and 10.5 RLU×10^5/ml
same,"Reactive oxygen species concentration, 12 Wk, Mean","[2]; plasma, mean of 5 HF dogs, 12 weeks after initiating therapy, 0.5 mg/kg/day",10.5 RLU×10^5/ml
same,"Reactive oxygen species concentration, 6 Wk, Mean","[2]; plasma, mean of HF dogs, 6 weeks after initiating therapy, 0.5 mg/kg/day",18.4 RLU×10^5/ml
same,"Reactive oxygen species concentration, BL, Mean","[2]; plasma, peptide group mean (5 dogs), baseline (before HF and treatment)",5.3 RLU×10^5/ml
same,"Reactive oxygen species concentration, PRE, Mean","[2]; plasma, peptide group mean, heart failure prior to initiating therapy",20.7 RLU×10^5/ml
same,"Reactive oxygen species concentration, BL",[2]; [5],5.5 RLU×10^5/ml and 3.9 RLU×10^5/ml and 6.8 RLU×10^5/ml and 5.7 RLU×10^5/ml and 4.7 RLU×10^5/ml
same,"Reactive oxygen species concentration, PRE",[2]; [6],23.6 RLU×10^5/ml and 18.5 RLU×10^5/ml and 14.6 RLU×10^5/ml and 26.0 RLU×10^5/ml
same,"plasma IL-6 levels (FIG. 3), in words",[3]; treatment for 12 weeks,near normal levels
same,"plasma IL-6 levels (FIG. 3), in words",[3]; treatment for six weeks,reduced IL-6 levels
same,"IL-6 concentration, 6 Wk","[3]; plasma, individual HF dogs, 6 weeks after initiating therapy",18.8 pg/ml and 23.4 pg/ml and 24.3 pg/ml and 19.5 pg/ml and 19.6 pg/ml (2×) and 20.5 pg/ml
same,"IL-6 concentration, 12 Wk","[3]; plasma, individual HF dogs, 12 weeks after initiating therapy",11.7 pg/mL and 11.3 pg/mL and 13.6 pg/mL and 11.5 pg/mL and 12.5 pg/mL and 11.9 pg/mL and 11.4 pg/mL
same,"IL-6 concentration, 6 Wk, Mean","[3]; plasma, mean of 7 HF dogs, 6 weeks after initiating therapy",20.8 pg/mL
same,"IL-6 concentration, 12 Wk, Mean","[3]; plasma, mean of 7 HF dogs, 12 weeks after initiating therapy",12.0 pg/mL
same,"IL-6 concentration, BL, Mean","[3]; plasma, peptide group mean (7 dogs), baseline (before HF and treatment)",10.1 pg/mL
same,"IL-6 concentration, PRE, Mean","[3]; plasma, peptide group mean (7 dogs), heart failure prior to initiating therapy",26.6 pg/mL
same,"IL-6 concentration, BL",[3]; [5],9.1 pg/mL and 5.8 pg/mL and 7.0 pg/mL and 12.6 pg/mL and 10.3 pg/mL and 12.5 pg/mL and 13.0 pg/mL
same,"IL-6 concentration, PRE",[3]; [6],29.3 pg/mL and 18.5 pg/mL and 29.2 pg/mL and 18.0 pg/mL and 31.2 pg/mL and 29.4 pg/mL and 30.4 pg/mL
